According to patent publication US20250381173A1, “Long-Lasting Anaesthetic Formulation” (BERTIE INTERNATIONAL AB, priority 2022, published 2025):
Several values for one entry are separate records, joined by “and”; a condition that tells them apart may be missing. Equal entries are not always repeated.

Legend:
female rats [1] = test: Local anesthesia pilot study, prick (sensitivity) test after one s.c. injection; format: in vivo, Sprague Dawley rats; settings: data not shown
Description: (§1) In order to evaluate administration of local anesthesia in a sensitivity test in female rats a pilot- and an efficacy study was performed.
(§2) Sprauge Dawley rats (females, 10 weeks) were acquired from Janvier Europe. Rats were housed in the animal facility, Medicon Village, Lund, Sweden. The rats were kept at 12 h light/dark cycles in polystyrene cages (type III cages, 2-3 rats per cage) comprising wood shavings. The rats were fed with standard rodent diet and water ad libitum. The rats were acclimatized for approximately one week before initiation of the experiment. The rats were identified by a marking on the tail with a permanent marker day 1.
Formulation of reference anesthesia ropivacaine, was prepared such that the pH of the composition and the concentration and dose of ropivacaine where essentially identical to the compositions of the invention. The concentration of Ropivacaine was 5 mg/ml in the formulation and was administered at a dose of 1 mg/kg bodyweight in 2 animals, 0.25 mg/kg bodyweight in 2 animals; and placebo PBS (phosphate buffered saline) in 2 animals. The vehicle and reference anesthesia were administrated s. c. (subcutaneous) in one single injection at time 0.
The rats were shaved at the back and habituated to the experimental environment for 30 minutes prior to the testing. […] The rat's reaction in the form of wrinkling of the skin was evaluated by ocular inspection.

female rats [2] = test: Local anesthesia efficacy test, prick test after one s.c. injection; format: in vivo, Sprague Dawley rats; settings: 0.25 mg/kg s.c.
Description: as §1, §2
Formulation of reference anesthesia Ropivacaine, was prepared in the same way as for the pilot study.
The rats were shaved at the back and habituated to the experimental environment for 30 minutes prior to the testing. The sensitivity test was performed at 6 different time points within 6 hours after administration of the test item (30 min, 1 h, 2 h, 3 h, 4 h, 5 h) by touching each rat with a needle. The rat's reaction in the form of wrinkling of the skin was evaluated by ocular inspection, giving each monitored response a value of 0 (no response) or 1 (response).

sciatic nerve = test: In vivo test 3: sensitivity test (tweezer), motor and sensor block after s.c. injection close to the sciatic nerve; design: species or system Wistar albino rats
Description: Male Wistar albino rats, weighing 200-250 g, obtained from SYLAB Experimental Animals Laboratory, were used in the experiments. The animals were kept in a 12 hour light-12 hour dark light period under standard conditions and fed with standard pellet water (ad libitum). All studies were carried out in accordance with international ethical rules, without abusing animal rights.
Formulations used were the same as in Example 2, with additional storage. The formulations were stored for 7 months at different temperatures. At first, the formulations were stored in the freezer for 6 months. Thereafter there were alterations in temperature storage; the formulations were iteratively stored in room temperature and in the fridge before use.
The compositions were administrated s. c. in one single injection at time 0. The compositions were administrated to a position in close proximity to the sciatic nerve. • Group 1: Ropivacaine 7.5 mg/ml, 1.1-1.2 ml. Total=at least 8.25 mg ropivacaine. This composition is commercial ropivacaine (Ropivacaina Inibsa, injectable solution). • Group 2: Ropivacaine 4 mg/ml, 2 ml, pH 5 (Test 1). Total=8 mg ropivacaine.
The sensitivity test was performed at 9 different time points within 9 hours after administration of the test item (1 h, […], 2 h, 3 h, 4 h, 5 h, 6 h, 7 h, 8 h and 9 h) by touching each rat with a tweezer. The rat's reaction in the form of wrinkling of the skin was evaluated by ocular inspection, giving each monitored response a value of 0 (no response), 0.5 (low response) or 1 (response).

[3] = Impurity analysis: 2,6-dimethylaniline (Impurity H) by UPLC-UV and UPLC-UV-MS; format: physicochemical
Description: Qualitative LC-analyzes were performed on samples from the stage in the formulation procedure after ropivacaine was added. LC analyzes with ultraviolet light (UV) detection were performed on a Thermo Fischer Scientific Vanquish UPLC instrument employing a Waters BEH C18 1.7 um 2.1*150 mm chromatographic column at 0.3 mL/min flow rate and otherwise method according to European pharmacopoeia 11.1, monograph 01/2017:2335 ‘Ropivacaine Hydrochloride Monohydrate’.
LC analyzes with UV and MS detection were carried out on a Waters Acquity UPLC Quattro Micro MS-instrument with electrospray ionisation (ESI) in positive-negative switching mode. The method used was based on monograph 01/2017:2335 as above, however, the mobile phase was changed to a MS-compatible one; instead of phosphate buffer 0.1% NH3/MeCN with gradient elution was used.
One of the impurities of ropivacaine specified in the pharmacopeial monograph Eu Pharm 11.1, 01/2017:2335 as Impurity H, the carcinogenic 2,6-dimethylaniline, was analyzed in prepared formulations by LC-UV and LC-UV-MS against 2,6-dimethylaniline reference material.
Specified Impurity H of ropivacaine of Ph. Eur. 11.1, 01/2017:2335-2,6-dimethylaniline—was not detected (<0.05 area-%), neither in the ropivacaine reference standard nor in the formulated samples of ropivacaine of microwave heated triethanolamine, as analyzed by UPLC-UV (240 nm) and UPLC-UV-MS (Full scan m/z 50-800). As such, it was concluded that 2,6-dimethylaniline is not produced in the treatment of a formulation of the present disclosure.

[4] = individual rat, score 0, 0.5 or 1, 0 h
[5] = individual rat, score 0, 0.5 or 1, 1 h
[6] = individual rat, score 0, 0.5 or 1, 2 h
[7] = individual rat, score 0, 0.5 or 1, 3 h
[8] = individual rat, score 0, 0.5 or 1, 4 h
[9] = individual rat, score 0, 0.5 or 1, 5 h
[10] = individual rat, score 0, 0.5 or 1, 6 h
[11] = individual rat, score 0, 0.5 or 1, 7 h

- Impurity H (2,6-dimethylaniline), UPLC-UV-MS ([3]; Full scan m/z 50-800): Not detected
- Impurity H (2,6-dimethylaniline), UPLC-UV ([3]; UV 240 nm): Not detected
- 2,6-dimethylaniline (Impurity H) level ([3]; not detected, UPLC-UV (240 nm) and UPLC-UV-MS): < 0.05 area-%
Compound: CCCN1CCCC[C@H]1C(=O)Nc1c(C)cccc1C [Ropivacaine, ropivacaine]
- duration of the anesthetic effect (female rats [1]; 0.25 mg/kg bodyweight s.c.): 2 h
- duration of the anesthetic effect (female rats [1]; 1 mg/kg bodyweight s.c.): 5 h
- Average value of first response (female rats [2]; group of 3 rats): 1.8 h
- Prick test response, 0.5 h (female rats [2]; individual rat, 0 = no response (anesthesia), 1 = response, 0.5 mg/ml, 0.5 h, 0.25 mg/kg): 0 (2×) and 1
- Prick test response, 1 h (female rats [2]; individual rat, 0 = no response (anesthesia), 1 = response, 1 h, 0.25 mg/kg): 0 (2×) and 1
- Prick test response, 2 h (female rats [2]; individual rat, 0 = no response (anesthesia), 1 = response, 2 h, 0.25 mg/kg): 1 (2×) and 0
- Prick test response, 3 h (female rats [2]; individual rat, 0 = no response (anesthesia), 1 = response, 3 h): 1
- Prick test response, 4 h (female rats [2]; individual rat, 0 = no response (anesthesia), 1 = response, 4 h, 0.25 mg/kg): 1 (2×) and 0
- Prick test response, 5 h (female rats [2]; individual rat, 0 = no response (anesthesia), 1 = response, 5 h): 1
- Loss Motor block, average (sciatic nerve; group average): 3.3 h
- loss of Sensor block, average (sciatic nerve; group average): 4.3 h
- Loss Motor block (sciatic nerve; individual rat): 4 h (4×) and 3 h (2×)
- loss of Sensor block (sciatic nerve; individual rat): 6 h (2×) and 3 h (2×) and 4 h (2×)
- Motor Block, test time 0 h (sciatic nerve; [4]): 1 (5×) and 0.5
- Sensor Block, test time 0 h (sciatic nerve; [4]): 1
- Motor Block, test time 1 h (sciatic nerve; [5]): 1 (5×) and 0.5
- Sensor Block, test time 1 h (sciatic nerve; [5]): 1
- Motor Block, test time 2 h (sciatic nerve; [6]): 1 (4×) and 0.5 (2×)
- Sensor Block, test time 2 h (sciatic nerve; [6]): 1
- Motor Block, test time 3 h (sciatic nerve; [7]): 0.5 and 0 (3×) and 1 (2×)
- Sensor Block, test time 3 h (sciatic nerve; [7]): 1 (4×) and 0 (2×)
- Motor Block, test time 4 h (sciatic nerve; [8]): 0
- Sensor Block, test time 4 h (sciatic nerve; [8]): 1 and 0 (4×) and 0.5
- Motor Block, test time 5 h (sciatic nerve; [9]): 0
- Sensor Block, test time 5 h (sciatic nerve; [9]): 1 and 0 (2×) and 0.5
- Motor Block, test time 6 h (sciatic nerve; [10]): 0
- Sensor Block, test time 6 h (sciatic nerve; [10]): 0
- Motor Block, test time 7 h (sciatic nerve; [11]): 0
- Sensor Block, test time 7 h (sciatic nerve; [11]): 0
